Reference: patent US10532054B2, “Compounds for the prevention and treatment of cardiovascular diseases” (Resverlogix Corp., priority 2007, dated 2020)

tested on: ApoA-I mRNA; experiment: Quantification of ApoA-I mRNA in HepG2 cells; format: cell-based; parameters: key: Active: An active compound is one that causes a >15% increase in ApoA-I mRNA at a concentration less than or equal to 100 uM; conditions: concentration less than or equal to 100 uM
Protocol: In this example, ApoA-I mRNA in tissue culture cells was quantitated to measure the transcriptional up-regulation of ApoA-I when treated with a compound of the invention.
HepG2 cells (˜2×10^5 per well) were placed in a 24-well plate in ˜400 μL MEM, supplemented with 0.5% (v/v) FBS, 24 h before addition of the compound of interest. At time of harvesting, the spent media was removed from the HepG2 cells and immediately placed on ice (for immediate use) or at −80° C. (for future use) in ApoA-I and albumin ELISAs. The cells remaining in the plate wells were rinsed in 200 μL PBS. PBS was carefully removed to avoid removing any loosely attached cells.
Once the PBS was removed, 85 μL cell lysis solution was added the cells in each well and incubated for 5-10 min at room temperature, to allow for complete cell lysis and detachment. mRNA was then prepared using the “mRNA Catcher PLUS plate” from Invitrogen, according to the protocol supplied. […]
The eluted mRNA isolated was then used in a one-step real-time […] reaction, using components of the Ultra Sense Kit together with Applied Biosystems primer-probe mixes. Real-time PCR data was analyzed, using the Ct values, to determine the fold induction of each unknown sample, relative to the control (that is, relative to the control for each independent DMSO concentration). […]

| Molecule | Effect on ApoA-I mRNA levels |
| --- | --- |
| 4-(1-Oxo-1,2-dihydroisoquinolin-3)phenyl 2-amino-5-guanidinopentanoate trihydrochloride [Example 4] | Active |

tested on: not given; experiment: not given; conditions: not given

| Molecule | melting point |
| --- | --- |
| COc1cc(OC)c2c(=O)[nH]c(-c3cc(C)c(OCCN4CCOCC4)c(C)c3)cc2n1 [Example 50, 7-(3,5-dimethyl-4-(2-morpholinoethoxy)phenyl)-2,4-dimethoxy-1,6-naphthyridin-5(6H)-one] | 212.5 to 212.9 °C |
| COc1cc2cc(-c3cc(C)c(O)c(C)c3)[nH]c(=O)c2c(OC)c1CN1CCOCC1 [Example 51, 3-(4-hydroxy-3,5-dimethylphenyl)-6,8-dimethoxy-7-(morpholinomethyl)isoquinolin-1(2H)-one] | 158 to 161 °C |
| COc1cc2nc(-c3cc(C)c(O)c(C)c3)[nH]c(=O)c2cc1OC [Example 52, 2-(4-hydroxy-3,5-dimethylphenyl)-6,7-dimethoxyquinazolin-4(3H)-one] | > 300 °C |
| CC(=O)Nc1ccc2nc(-c3cc(C)c(O)c(C)c3)[nH]c(=O)c2c1 [Example 54, N-(2-(4-hydroxy-3,5-dimethylphenyl)-4-oxo-3,4-dihydroquinazolin-6-yl)acetamide] | 336.5 °C (dec.) |
| COc1cc2nc(-c3cc(C)c(OCC(N)=O)c(C)c3)[nH]c(=O)c2cc1OC [Example 55, 2-(4-(6,7-dimethoxy-4-oxo-3,4-dihydroquinazolin-2-yl)-2,6-dimethylphenoxy)acetamide] | 354 to 356 °C |
| COc1cc(OC)c2c(=O)[nH]c(-c3cc(C)c(OC)c(C)c3)cc2n1 [Example 63, 2,4-dimethoxy-7-(4-methoxy-3,5-dimethylphenyl)-1,6-naphthyridin-5(6H)-one] | 262 to 263 °C (dec.) |
| COc1cc(OC)c2c(=O)[nH]c(-c3cc(C)c(O)c(C)c3)nc2n1 [Example 68, 2-(4-hydroxy-3,5-dimethylphenyl)-5,7-dimethoxypyrido[2,3-d]pyrimidin-4(3H)-one] | 297 to 299 °C |
| COc1cc(OC)c2c(=O)nc(-c3cc(C)c(O)c(C)c3)n(C)c2c1 [Example 71, 2-(4-hydroxy-3,5-dimethylphenyl)-5,7-dimethoxy-1-methylquinazolin-4(1H)-one] | 188.5 to 189.1 °C |
| CC(=O)Nc1ccc2nc(-c3cc(C)c(OCCO)c(C)c3)[nH]c(=O)c2c1 [Example 73, N-(2-(4-(2-hydroxyethoxy)-3,5-dimethylphenyl)-4-oxo-3,4-dihydroquinazolin-6-yl)acetamide] | > 300 °C |
| Cc1cc(-c2cc3nc(OC(C)C)cc(OC(C)C)c3c(=O)[nH]2)cc(C)c1O [Example 74, 7-(4-hydroxy-3,5-dimethylphenyl)-2,4-diisopropoxy-1,6-naphthyridin-5(6H)-one] | 206 to 208 °C |
| COc1cc(OC)c2cnc(-c3cc(C)c(OCCO)c(C)c3)nc2c1 [Example 76, 2-(4-(5,7-dimethoxyquinazolin-2-yl)-2,6-dimethylphenoxy)ethanol] | 169 to 170 °C |
| Cc1cc(C)c2c(=O)[nH]c(-c3cc(C)c(OCCO)c(C)c3)nc2c1 [Example 77, 2-(4-(2-hydroxyethoxy)-3,5-dimethylphenyl)-5,7-dimethylquinazolin-4(3H)-one] | 259.6 to 261.2 °C |
| COc1cc(OC)c2c(=O)[nH]c(-c3ccc(N(CCO)CCO)cc3)nc2n1 [Example 78, 2-(4-(bis(2-hydroxyethyl)amino)phenyl)-5,7-dimethoxy-pyrido[2,3-d]pyrimidin-4(3H)one] | 277 to 279 °C |
| Cc1cc(-c2nc3cc(Cl)cc(Cl)c3c(=O)[nH]2)cc(C)c1OCCO [Example 80, 5,7-dichloro-2-(4-(2-hydroxyethoxy)-3,5-dimethylphenyl)quinazolin-4(3H)-one] | 260.8 to 262.6 °C |
| COc1cc2nc(-c3cc(C)c(O)c(C)c3)[nH]c(=O)c2c(OC)c1CN1CCOCC1 [Example 81, 2-(4-hydroxy-3,5-dimethylphenyl)-5,7-dimethoxy-6-(morpholinomethyl)quinazolin-4(3H)-one] | 237 to 239.1 °C |
| COc1cc(O)c2c(=O)[nH]c(-c3cc(C)c(O)c(C)c3)nc2c1 [Example 104, 5-hydroxy-2-(4-hydroxy-3,5-dimethylphenyl)-7-methoxyquinazolin-4(3H)-one] | 291.3 to 293 °C |

The remaining lines, values ahead:

| melting point | Molecule |
| --- | --- |
| 250.6 to 251.1 °C | COc1cc(OC)c2c(=O)[nH]c(-c3ccc(CCC(=O)O)cc3)nc2c1 [Example 53, 3-(4-(5,7-dimethoxy-4-oxo-3,4-dihydroquinazolin-2-yl)phenyl)propanoic acid] |
| 287 to 288 °C (dec.) | COc1cc(OC)c2c(=O)[nH]c(-c3ccc(OCCO)c(Cl)c3)nc2c1 [Example 56, 2-(3-chloro-4-(2-hydroxyethoxy)phenyl)-5,7-dimethoxyquinazolin-4(3H)-one] |
| 246 to 248 °C | COc1cc(OC)c2c(=O)[nH]c(-c3ccc(OCCO)c(OC)c3)nc2c1 [Example 57, 2-(4-(2-hydroxyethoxy)-3-methoxyphenyl)-5,7-dimethoxyquinazolin-4(3H)-one] |
| > 300 °C | COc1cc2nc(-c3cc(C)c(OCCO)c(C)c3)[nH]c(=O)c2cc1OC [Example 58, 2-(4-(2-hydroxyethoxy)-3,5-dimethylphenyl)-6,7-dimethoxyquinazolin-4(3H)-one] |
| 190 to 192 °C | COc1cc(OC)c2c(=O)[nH]c(-c3cc(C)c(NC(=O)CO)c(C)c3)nc2c1 [Example 60, N-(4-(5,7-dimethoxy-4-oxo-3,4-dihydroquinazolin-2-yl)-2,6-dimethylphenyl)-2-hydroxyacetamide] |
| 224.9 to 225.4 °C | COc1cc(OC)c2c(=O)[nH]c(-c3cc(C)c(OCCO)c(C)c3)cc2n1 [Example 61, 7-(4-(2-hydroxyethoxy)-3,5-dimethylphenyl)-2,4-dimethoxy-1,6-naphthyridin-5(6H)-one] |
| 270 to 272 °C | COc1cc(OC)c2c(=O)[nH]c(-c3cc(C)c(OCC(=O)O)c(C)c3)nc2c1 [Example 64, 2-(4-(5,7-dimethoxy-4-oxo-3,4-dihydroquinazolin-2-yl)-2,6-dimethylphenoxy)acetic acid] |
| 318 to 319 °C | COc1cc(OC)c2c(=O)[nH]c(-c3ccc(NC(=O)CO)cc3)nc2c1 [Example 65, N-(4-(5,7-dimethoxy-4-oxo-3,4-dihydroquinazolin-2-yl)phenyl)-2-hydroxyacetamide] |
| 282.7 to 284.5 °C | COc1cc(OC)c2c(=O)[nH]c(-c3ccc(OC)c(CN4CCOCC4)c3)nc2c1 [Example 69, 5,7-dimethoxy-2-(4-methoxy-3-(morpholinomethyl)phenyl)quinazolin-4(3H)-one] |
| 255 to 256 °C | COc1cc(OC)c2c(=O)[nH]c(-c3cc(C)c(OCCO)c(C)c3)nc2n1 [Example 70, 2-(4-(2-hydroxyethoxy)-3,5-dimethylphenyl)-5,7-dimethoxypyrido[2,3-d]pyrimidin-4(3H)-one] |
| 249 to 250.3 °C | COc1cc(OC)c2c(=O)[nH]c(-c3ccc(O)c(CCO)c3)nc2c1 [Example 75, 2-(4-hydroxy-3-(2-hydroxyethyl)phenyl)-5,7-dimethoxyquinazolin-4(3H)-one] |
| 201 to 202 °C | COCCOc1c(C)cc(-c2nc3cc(OC)cc(OC)c3c(=O)[nH]2)cc1C [Example 79, 5,7-dimethoxy-2-(4-(2-methoxyethoxy)-3,5-dimethylphenyl)quinazolin-4(3H)-one] |
| 275 to 277 °C | COc1cc(OC)c2c(=O)[nH]c(-c3ccc(OCC(=O)O)c(OC)c3)nc2c1 [Example 103, 2-(4-(5,7-dimethoxy-4-oxo-3,4-dihydroquinazolin-2-yl)2-methoxyphenoxy)acetic acid] |

tested on: not given; experiment: not given; conditions: subjects with low HDL-C; cited from earlier work

| Molecule | increase in the HDL-C level [%] | reduction of the CHD risk [%] |
| --- | --- | --- |
| Cc1ccc(C)c(OCCCC(C)(C)C(=O)O)c1 [gemfibrozil] | 6 | 22 |

tested on: not given; experiment: not given; conditions: following oral administration; cited from earlier work

| Molecule | intestinal absorption |
| --- | --- |
| O=c1c(O)c(-c2ccc(O)c(O)c2)oc2cc(O)cc(O)c12 [quercetin] | less than 1% |
